Key:
Assay in all cases: relative viability (nuclei count vs DMSO), 5 days (fraction); higher = more cells survive
[1] = compound: Cc1ccc2nc(NCCN)c3ncc(C)n3c2c1 + CC(=O)Nc1cccc(-n2c(=O)n(C3CC3)c(=O)c3c(Nc4ccc(I)cc4F)n(C)c(=O)c(C)c32)c1 [Trametinib] (partner 0.02 µM)
Method in brief: (§1)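 Relative viability was taken as the ratio of nuclei in treated wells to nuclei in vehicle wells. Lung cancer cell lines in 1536-well plates received compounds by pin tool one day after seeding, either one drug alone or a fixed anchor-drug dose plus five library-drug doses (not always all listed) in √10 steps. Nuclei were counted on 4× images after 5 days of treatment, and values are medians of duplicate plates.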

[2] = compound: Cc1ccc2nc(NCCN)c3ncc(C)n3c2c1 + N=C(N)NC(=N)NCCc1ccccc1 [Phenformin] (partner 250 µM)
Method in brief: as §1

[3] = compound: O=C(/C=C/c1ccccc1)NC(NC(=S)Nc1cccc2cccnc12)C(Cl)(Cl)Cl [Salubrinal] + O=C(CCCCCCC(=O)Nc1ccccc1)NO [Vorinostat] (partner 1 µM)
Method in brief: as §1

[4] = compound: Cc1ccc2nc(NCCN)c3ncc(C)n3c2c1 + Cc1nc(NC(=O)N2CCC[C@H]2C(N)=O)sc1-c1ccnc(C(C)(C)C(F)(F)F)c1 [Alpelisib] (partner 2 µM)
Method in brief: as §1

| Cell Line | relative viability ([1]; first compound 0.04 µM) | relative viability ([1]; first compound 0.1265 µM) | relative viability ([1]; first compound 0.4 µM) | relative viability ([1]; first compound 1.265 µM) | relative viability ([1]; first compound 4 µM) | relative viability ([2]; first compound 0.04 µM) | relative viability ([2]; first compound 0.1265 µM) | relative viability ([2]; first compound 0.4 µM) | relative viability ([2]; first compound 1.265 µM) | relative viability ([2]; first compound 4 µM) | relative viability ([3]; first compound 0.08 µM) | relative viability ([3]; first compound 0.253 µM) | relative viability ([3]; first compound 0.8 µM) | relative viability ([3]; first compound 2.53 µM) | relative viability ([3]; first compound 8 µM) | relative viability ([4]; first compound 0.04 µM) | relative viability ([4]; first compound 0.1265 µM) | relative viability ([4]; first compound 0.4 µM) | relative viability ([4]; first compound 1.265 µM) | relative viability ([4]; first compound 4 µM) |
| --- | --- | --- | --- | --- | --- | --- | --- | --- | --- | --- | --- | --- | --- | --- | --- | --- | --- | --- | --- | --- |
| 201T | 0.72 | 0.696 | 0.713 | 0.738 | 0.684 | 0.46 | 0.417 | 0.452 | 0.465 | 0.453 | 1.08 | 0.922 | 1.03 | 1.03 | 0.933 | 1.03 | 1.01 | 1.02 | 1.05 | 1.02 |
| A549 |  |  |  |  |  | 0.209 | 0.199 | 0.166 | 0.111 | 0.118 |  |  |  |  |  | 0.978 | 0.741 | 0.722 | 1.01 | 0.611 |
| A-427 | 0.725 | 0.731 | 0.705 | 0.695 | 0.775 | 0.388 | 0.308 | 0.35 | 0.265 | 0.296 | 0.859 | 0.905 | 0.896 | 0.814 | 0.827 | 1.09 | 1.13 | 1.05 | 1.07 | 1.14 |
| ABC-1 |  |  |  |  |  | 0.236 | 0.27 | 0.297 | 0.248 | 0.226 | 1.14 | 0.947 | 0.971 | 1.34 | 1.11 | 1.15 | 1.27 | 1.18 | 1.15 | 0.742 |
| BEN | 0.97 | 0.929 | 1.07 | 0.958 | 1.05 | 0.288 | 0.265 | 0.293 | 0.247 | 0.296 | 0.52 | 0.543 | 0.645 | 0.507 | 0.571 | 1.06 | 0.787 | 1.09 | 0.807 | 1.19 |
| CAL-12T | 0.352 | 0.323 | 0.361 | 0.357 | 0.271 | 0.567 | 0.491 | 0.536 | 0.59 | 0.542 | 0.903 | 0.676 | 0.989 | 0.681 | 0.672 | 1.17 | 1.11 | 1.3 | 1.25 | 0.992 |
| COR-L23 | 0.581 | 0.564 | 0.624 | 0.648 | 0.506 | 0.464 | 0.448 | 0.45 | 0.468 | 0.37 | 0.471 | 0.419 | 0.534 | 0.323 | 0.356 | 0.904 | 0.663 | 0.916 | 0.809 | 0.495 |
| COR-L 105 | 0.423 | 0.506 | 0.478 | 0.407 | 0.414 | 0.647 | 0.555 | 0.502 | 0.487 | 0.425 | 1.08 | 0.816 | 0.843 | 0.797 | 0.747 | 0.977 | 1.04 | 1.27 | 1.13 | 0.75 |
| Calu-6 |  |  |  |  |  |  |  |  |  |  |  |  |  |  |  | 1.05 | 0.923 | 1.01 | 1.04 | 0.719 |
| ChaGo-K-1 | 0.884 | 0.924 | 0.904 | 0.849 | 0.77 | 0.534 | 0.544 | 0.485 | 0.412 | 0.435 | 0.834 | 0.683 | 0.901 | 0.814 | 0.77 |  |  |  |  |  |
| EBC-1 |  |  |  |  |  |  |  |  |  |  |  |  |  |  |  | 1.04 | 0.734 | 0.795 | 0.643 | 0.617 |
| EKVX | 0.383 | 0.365 | 0.269 | 0.261 | 0.291 | 0.25 | 0.236 | 0.241 | 0.239 | 0.248 | 0.769 | 0.606 | 0.863 | 0.668 | 0.665 | 0.962 | 0.856 | 0.83 | 0.808 | 0.778 |
| EMC-BAC-2 | 0.927 | 0.927 | 0.873 | 0.954 | 0.7 | 0.518 | 0.562 | 0.499 | 0.536 | 0.54 | 0.388 | 0.477 | 0.798 | 0.514 | 0.494 | 0.748 | 0.722 | 0.72 | 0.793 | 0.719 |
| EPLC-272H | 0.296 | 0.334 | 0.282 | 0.253 | 0.245 | 0.317 | 0.397 | 0.383 | 0.373 | 0.294 | 0.464 |  | 0.539 | 0.427 | 0.336 | 1.07 | 0.937 | 0.896 | 1.06 | 0.96 |
| H3255 | 0.562 | 0.554 | 0.564 | 0.523 | 0.575 | 0.396 | 0.343 | 0.396 | 0.355 | 0.382 | 0.671 | 0.81 | 0.945 | 0.765 | 0.76 | 0.77 | 0.613 | 0.705 | 0.659 | 0.593 |
| HARA | 0.637 | 0.648 | 0.41 | 0.723 | 0.761 | 0.437 | 0.449 | 0.388 | 0.342 | 0.453 | 0.617 | 0.631 | 0.597 | 0.478 | 0.475 | 0.839 | 0.831 | 0.804 | 0.715 | 0.788 |
| HCC-15 | 0.425 | 0.373 | 0.364 | 0.356 | 0.381 | 0.464 | 0.501 | 0.48 | 0.429 | 0.379 | 0.952 | 0.784 | 0.866 | 0.826 | 0.804 | 0.879 | 0.906 | 0.93 | 0.868 | 0.814 |
| HCC-44 | 1.11 | 0.971 | 1.03 | 1.1 | 1.01 | 0.186 | 0.247 | 0.157 | 0.184 | 0.146 | 1.04 | 1.1 | 1.13 | 1 | 1.04 | 0.776 | 0.787 | 0.786 | 0.711 | 0.769 |
| HCC-78 | 0.703 | 0.672 | 0.699 | 0.527 | 0.536 | 0.81 | 0.694 | 0.71 | 0.697 | 0.601 | 0.473 | 0.446 | 0.472 | 0.451 | 0.441 | 0.338 | 0.337 | 0.288 | 0.309 | 0.308 |

Reference: the supplement of paper PMC10307832
